We go through 18 molecules from patent publication US8598210B2, “Prolyl hydroxylase inhibitors and methods of use” (Akebia Therapeutics Inc., priority 2006, dated 2013).

For assay [1], the target named is Recombinant human EGLN-1-179/426 (Homo sapiens (Human), UniProt Q9GZT9). Briefly: EGLN-1 Activity Assay (MALDI-TOF MS). The format is biochemical. The conditions noted are these: read-out: EGLIN1 IC50. On the procedure: (§1) Hydroxylated peptide product is identified from substrate by the gain of 16 Da. Data defined as percent conversion of substrate to product is analyzed in GraphPad Prism 4 to calculate IC50 values.

The test system of the next assay is EPO. Briefly: Mouse Serum EPO Assay (mouse ischemic hindlimb study). The following applies: for EPO response: in vivo response. The format is in vivo. On the procedure: (§2) Mouse Ischemic Hindlimb Study
(§3) All animal work is conducted in accordance with the Guide for the Care and Use of Laboratory Animals (National Academy of Sciences; Copyright© 1996) and the Institutional Animal Care and Use Committee guidelines at Procter and Gamble Pharmaceuticals. We studied 9-10 week old male C57B1/6 mice from Charles River Laboratory (Portage, Mich.). The mice are orally dosed with vehicle (aqueous carbonate buffer, 50 mM; pH 9.0) or compound 1 in vehicle at 50 mg/kg or 100 mg/kg. The animals are dosed three times: day 1 at 8 am and 5 pm, day 2 at 8 am. One hour after the first dose, unilateral arterial ligation is performed under anesthesia using isoflurane. The femoral artery is ligated proximal to the origin of the popliteal artery. The contralateral limb underwent a sham surgical procedure. Ligation is performed in an alternating fashion between right and left hindlimbs. Two hours after 8 am dosing on day 2, we obtained blood by ventricular stick while the mice are anesthetized with isoflurane. Serum samples for EPO analysis are obtained using gel clot serum separation tubes. Heart, liver, and gastrocnemius muscles are harvested, snap-frozen in liquid nitrogen, and stored in −80° C. until use.
The mouse serum EPO is detected using Mouse Quantikine Erythropoietin ELISA kit from R&D Systems according to manufacturer's instructions.

Assay [2] has as its target Full-length recombinant human EGLN-3 (His-MBP-TVMV-EGLN-3 fusion) (Homo sapiens (Human), UniProt Q9H6Z9). In words: EGLN-3 enzyme activity assay (MALDI-TOF MS). The format is biochemical. The following applies: read-out: EGLIN3 IC50. On the procedure: as §1
The subject of a further assay is HIF-1α. In words: Mouse Tissue HIF Western Blot Analysis. The conditions noted are these: FIG. 1; immunoblot analysis of nuclear extracts. The format is in vivo. The procedure:
as §2, §3
Mouse Tissue HIF Western Blot Analysis
Tissues from mice stored at −80° C. are powdered with mortar and pestle chilled with liquid nitrogen. […]

Full-length recombinant human EGLN-3 (His-MBP-TVMV-EGLN-3 fusion), sequence (Q9H6Z9 whole entry, the tested form may be a part): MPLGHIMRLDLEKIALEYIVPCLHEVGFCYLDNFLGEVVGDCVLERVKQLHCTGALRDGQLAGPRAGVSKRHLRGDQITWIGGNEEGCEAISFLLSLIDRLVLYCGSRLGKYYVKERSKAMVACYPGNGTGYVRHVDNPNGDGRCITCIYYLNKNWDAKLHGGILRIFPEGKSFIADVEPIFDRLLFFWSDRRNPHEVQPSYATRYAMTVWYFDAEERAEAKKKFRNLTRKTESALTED
Recombinant human EGLN-1-179/426, sequence (Q9GZT9 179-426): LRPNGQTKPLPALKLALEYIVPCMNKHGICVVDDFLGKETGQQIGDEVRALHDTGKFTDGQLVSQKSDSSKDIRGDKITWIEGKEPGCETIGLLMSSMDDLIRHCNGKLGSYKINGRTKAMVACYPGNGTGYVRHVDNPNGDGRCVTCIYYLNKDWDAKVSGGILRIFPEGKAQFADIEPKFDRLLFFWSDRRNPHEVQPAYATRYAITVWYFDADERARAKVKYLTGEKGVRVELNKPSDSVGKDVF

The IC50 is the point on the concentration scale where inhibition reaches its midpoint. For `O=C(O)CNC(=O)c1ncc(-c2cccc(-c3nn[nH]n3)c2)cc1O` [({3-Hydroxy-5-[3-(2H-tetrazol-5-yl)phenyl]-pyridine-2-carbonyl}-amino)-acetic acid], the half-maximal inhibitory concentration (IC50) in assay [1] turned out to be 400 nM.
Turning to `COC(=O)CNC(=O)c1ncc(-c2cccc(C(=O)N3CCCC3)c2)cc1O` [({3-Hydroxy-5-[3-(pyrrolidine-1-carbonyl)-phenyl]-pyridine-2-carbonyl}-amino)-acetic acid methyl ester], the IC50 in assay [1] is 2500 nM.
For the molecule `O=C(O)CNC(=O)c1ncc(-c2cccc(C(=O)N3CCCC3)c2)cc1O` [({3-Hydroxy-5-[3-(pyrrolidine-1-carbonyl)phenyl]-pyridine-2-carbonyl}amino)-acetic acid], in assay [1], the half-maximal inhibitory concentration (IC50) amounted to 300 nM.
With `Cc1ccc(-c2ccc(C(=O)NCC(=O)O)c(O)c2)cc1` [[(3-Hydroxy-4′-methyl-biphenyl-4-carbonyl)-amino]-acetic acid], the EPO response result with EPO is “yes”. The IC50 in assay [1] came out at 20000 nM.
With `COC(=O)CNC(=O)c1ncc(-c2ccc(C)cc2)cc1O` [[(3-Hydroxy-5-(4-methylphenyl)-pyridine-2-carbonyl)-amino]-acetic acid methyl ester], the IC50 in assay [2] came to 52300 nM; in assay [1], 4100 nM.
On to `Cc1ccc(-c2cnc(C(=O)NCC(=O)O)c(O)c2)cc1` [[(3-Hydroxy-5-(4-methylphenyl)pyridine-2-carbonyl)amino]-acetic acid], for which the EPO response entry with EPO is “yes”. In addition, in assay [2], the half-inhibitory concentration (IC50) is 180 nM.
In the case of `COC(=O)CNC(=O)c1ncc(-c2ccccc2Cl)cc1O` [{[5-(2-Chloro-phenyl)-3-hydroxy-pyridine-2-carbonyl]-amino}-acetic acid methyl ester], in the assay on EPO, the EPO response result is on record as “yes”. Further, in assay [2], the IC50 amounted to 37500 nM.
For `O=C(O)CNC(=O)c1ncc(-c2ccccc2Cl)cc1O` [{[5-(2-Chlorophenyl)-3-hydroxypyridine-2-carbonyl]amino}-acetic acid], the EPO response entry in the assay on EPO was “yes”. Moreover, the half-inhibitory concentration (IC50) in assay [2] was found to be 390 nM.
As for `Cc1ccc(Cl)cc1-c1cnc(C(=O)NCC(=O)O)c(O)c1` [{[5-(2-Methyl-5-chlorophenyl)-3-hydroxypyridine-2-carbonyl]amino}-acetic acid], the IC50 in assay [1] amounted to 2500 nM.
Turning to `COC(=O)CNC(=O)c1ncc(-c2cccc(C(N)=O)c2)cc1O` [{[5-(3-Carbamoyl-phenyl)-3-hydroxy-pyridine-2-carbonyl]-amino}-acetic acid methyl ester], the IC50 in assay [1] turned out to be 11200 nM.
In the case of `O=C(O)CNC(=O)c1ncc(-c2cccc(Cl)c2)cc1O` [{[5-(3-Chlorophenyl)-3-hydroxypyridine-2-carbonyl]amino}-acetic acid], the “stabilization of HIF-1α in mouse liver” value with HIF-1α is “stabilization”. Also, in the assay with EPO (FIG. 2, after oral dosing), the “erythropoietin level versus vehicle in mouse serum” value is “elevated”. Moreover, in the assay on EPO, the EPO response entry is listed as “yes”.
On to `N#Cc1cccc(-c2cnc(C(=O)NCC(=O)O)c(O)c2)c1` [{[5-(3-Cyanophenyl)-3-hydroxypyridine-2-carbonyl]amino}-acetic acid], for which the IC50 in assay [1] is 190 nM.
On to `COC(=O)CNC(=O)c1ncc(-c2cccc(Cl)c2)cc1O` [{[5-(3-chloro-phenyl)-3-hydroxy-pyridine-2-carbonyl]-amino}-acetic acid methyl ester], for which the EPO response result in the assay on EPO is given as “yes”. Besides, the IC50 was found to be 21400 nM in assay [2] and 2800 nM in assay [1].
For `COC(=O)CNC(=O)c1ncc(-c2ccc(Cl)cc2)cc1O` [{[5-(4-Chloro-phenyl)-3-hydroxy-pyridine-2-carbonyl]-amino}-acetic acid methyl ester], the concentration for half-maximal inhibition (IC50) in assay [1] amounted to 3700 nM.
For `N#Cc1ccc(-c2cnc(C(=O)NCC(=O)O)c(O)c2)cc1` [{[5-(4-Cyanophenyl)-3-hydroxypyridine-2-carbonyl]amino}-acetic acid], the EPO response entry in the assay with EPO is given as “yes”. Moreover, the IC50 in assay [2] was determined as 560 nM.
For `CC(C)Oc1ccc(-c2cnc(C(=O)NCC(=O)O)c(O)c2)cc1` [{[5-(4-Isopropoxyphenyl)-3-hydroxypyridine-2-carbonyl]amino}-acetic acid], the IC50 in assay [1] stood at 1600 nM.
Still for that read-out and setting: for `CC(C)c1ccc(-c2cnc(C(=O)NCC(=O)O)c(O)c2)cc1` [{[5-(4-Isopropylphenyl)-3-hydroxypyridine-2-carbonyl]amino}-acetic acid] the value was 440 nM.
Turning to “{[5-(4-Chlorophenyl)-3-hydroxypyridine-2-carbonyl]amino}-acetic acid”, the EPO response result in the assay on EPO is recorded as “yes”. For the same molecule, in assay [2], the IC50 came out at 83 nM.
